Among the test systems are SK-MEL-2 melanoma; OVCAR-8 ovarian; NCI-H460 lung; MDA-MB-435; T-47D breast; OVCAR-5 ovarian; SR leukemia; HCC-2998 colon; OVCAR-3 ovarian; BT-549 breast.
Common to all, as to assay: inhibition of tumour cell growth, NCI panel, 48 h

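Where inhibition never reached the appropriate level, the endpoint shown equals the highest concentration tested. Otherwise, values were interpolated linearly from a five-concentration, 48-hour dose response in 96-well plates. GI50 marks 50% less growth. At the TGI there is no net growth.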

Regarding `CCCCOC(=O)c1c(C)[nH]c(/C=C2\N=C(c3ccc[nH]3)C=C2OC)c1C`, the GI50 is 0.103 µM in the test with SK-MEL-2 melanoma; 0.216 µM in the test on OVCAR-8 ovarian; 0.0613 µM with NCI-H460 lung; 0.123 µM with MDA-MB-435; 0.347 µM in the test with T-47D breast; 0.337 µM in the test on OVCAR-5 ovarian. For the same compound, the GI50 is 0.0821 µM in the test with SR leukemia, 0.138 µM in the test with HCC-2998 colon, 0.151 µM with OVCAR-3 ovarian and 0.65 µM with BT-549 breast. The TGI stood at 0.381 µM in the test with SK-MEL-2 melanoma; 13.8 µM with OVCAR-8 ovarian; 2 µM with NCI-H460 lung; 1.74 µM with MDA-MB-435; 1.9 µM in the test with T-47D breast; 2.47 µM in the test on OVCAR-5 ovarian. In addition, the TGI with SR leukemia was found to be 1.47 µM; with HCC-2998 colon it was 2.06 µM; in the test on OVCAR-3 ovarian it was 1.17 µM; in the test with BT-549 breast, 12.1 µM.

Turning to `COC(=O)c1cccc(NC(=O)c2ccc(NC3=C(Cl)C(=O)N(Cc4ccccc4)C3=O)cc2)c1`, the GI50 in the test on SK-MEL-2 melanoma is 14.5 µM; with OVCAR-8 ovarian, 11.4 µM; with NCI-H460 lung it was 30.2 µM; in the test with MDA-MB-435, 14.3 µM; in the test on T-47D breast, 4.46 µM; in the test with OVCAR-5 ovarian, 3.63 µM. In addition, the GI50 with SR leukemia is 1.87 µM; with HCC-2998 colon, 2.04 µM; in the test on OVCAR-3 ovarian, 6.45 µM; in the test on BT-549 breast, 15.3 µM. For the same compound, the TGI was found to be 44.2 µM in the test with SK-MEL-2 melanoma; 32.1 µM in the test on OVCAR-8 ovarian; 84.6 µM in the test with NCI-H460 lung; 34.2 µM in the test on MDA-MB-435; 63.3 µM in the test on T-47D breast; 29.4 µM in the test on OVCAR-5 ovarian. For the same compound, the TGI came to 7.56 µM in the test on SR leukemia, 3.77 µM in the test with HCC-2998 colon, 25.9 µM in the test on OVCAR-3 ovarian and 31.9 µM in the test on BT-549 breast.

For the compound `Cn1c(=O)c(Oc2ccc(F)cc2F)cc2cnc(NCC(C)(C)O)nc21`, the GI50 with SK-MEL-2 melanoma, with OVCAR-8 ovarian, in the test with NCI-H460 lung, with MDA-MB-435, with T-47D breast and in the test on OVCAR-5 ovarian was above 25 µM throughout. Moreover, the GI50 in the test on SR leukemia, in the test on HCC-2998 colon, in the test with OVCAR-3 ovarian and with BT-549 breast was above 25 µM each time. The TGI in the test with SK-MEL-2 melanoma, with OVCAR-8 ovarian, in the test with NCI-H460 lung, in the test with MDA-MB-435, in the test with T-47D breast and in the test on OVCAR-5 ovarian was above 25 µM each time. In addition, the TGI in the test with SR leukemia, with HCC-2998 colon, in the test on OVCAR-3 ovarian and with BT-549 breast was above 25 µM each time.

For `CC[C@@H](C)/C=C(C)/C=C/C(=O)c1c(O)c(-c2ccc(O)cc2)cn(OC2CC(=O)CCC(C)OC(=O)CC2O)c1=O` (stereo not given in full), the GI50 is 0.489 µM in the test on SK-MEL-2 melanoma; 0.354 µM in the test with OVCAR-8 ovarian; 0.267 µM in the test on NCI-H460 lung; 0.485 µM in the test on MDA-MB-435; 0.383 µM with T-47D breast; 2.35 µM in the test with OVCAR-5 ovarian. Also, the GI50 in the test with SR leukemia was 0.21 µM; in the test with HCC-2998 colon it was 2.53 µM; in the test with OVCAR-3 ovarian it was 0.284 µM; with BT-549 breast, 0.554 µM. In addition, the TGI in the test with SK-MEL-2 melanoma was found to be 15.6 µM; with OVCAR-8 ovarian it was 22.8 µM; with NCI-H460 lung it was 2.99 µM; in the test on MDA-MB-435, 19 µM; in the test on T-47D breast, 15.3 µM; with OVCAR-5 ovarian, 23.3 µM. Further, the TGI in the test on SR leukemia came out at 1.27 µM; in the test with HCC-2998 colon, 13.6 µM; in the test on OVCAR-3 ovarian, 14.1 µM; in the test on BT-549 breast it was 16.2 µM.

For `Nc1c(C(=O)Nc2cccc(C(F)(F)F)c2)sc2nc3c(cc12)CCCCCC3`, the GI50 in the test on SK-MEL-2 melanoma was 4.35 µM; with OVCAR-8 ovarian, 2.24 µM; in the test on NCI-H460 lung, 2.32 µM; with MDA-MB-435 it was 2.1 µM; in the test on T-47D breast, 1.35 µM; with OVCAR-5 ovarian, 3.29 µM. Also, the GI50 in the test with SR leukemia was 3.77 µM; in the test with HCC-2998 colon, 12.3 µM; in the test with OVCAR-3 ovarian, 2.17 µM; with BT-549 breast it was 2.54 µM. The TGI with SK-MEL-2 melanoma came out at 18.2 µM; in the test with OVCAR-8 ovarian it was 6.82 µM; with NCI-H460 lung it was 7.52 µM; with MDA-MB-435, 13.9 µM; with T-47D breast, 6.2 µM; with OVCAR-5 ovarian it was 13.7 µM. The TGI with SR leukemia is 19 µM; with HCC-2998 colon, above 100 µM; in the test on OVCAR-3 ovarian, 4.88 µM; in the test on BT-549 breast it was 9.59 µM.

Regarding `CC1(C)C(CC(=O)O)CCCC1CC(=O)O` (stereo not given), the TGI with SK-MEL-2 melanoma, with OVCAR-8 ovarian, with MDA-MB-435, in the test with T-47D breast, in the test on OVCAR-5 ovarian and with SR leukemia was above 100 µM throughout. Besides, the TGI in the test on OVCAR-3 ovarian and in the test on BT-549 breast was above 100 µM throughout.

With `NC(=O)c1csc(-c2ccc(CO)o2)n1`, the TGI in the test with SK-MEL-2 melanoma, in the test on OVCAR-8 ovarian, with NCI-H460 lung, in the test on MDA-MB-435, in the test with T-47D breast and in the test with OVCAR-5 ovarian was above 100 µM throughout. Besides, the TGI in the test with SR leukemia, in the test on OVCAR-3 ovarian and with BT-549 breast was above 100 µM throughout.

For `Nc1cc(N)c2nc(NCCc3ccc(Cl)c(Cl)c3)cnc2c1`, the GI50 was 8.23 µM in the test on SK-MEL-2 melanoma; 12.7 µM in the test on OVCAR-8 ovarian; 15.4 µM in the test with NCI-H460 lung; 3.96 µM in the test on MDA-MB-435; 2.83 µM with T-47D breast; 20 µM in the test on OVCAR-5 ovarian. Further, the GI50 with SR leukemia is 3.9 µM; in the test with OVCAR-3 ovarian, 2.05 µM; in the test on BT-549 breast, 20.1 µM. For the same compound, the TGI with SK-MEL-2 melanoma is 21.4 µM; in the test with OVCAR-8 ovarian, 25.3 µM; with NCI-H460 lung, 35 µM; with MDA-MB-435, 13.6 µM; in the test with T-47D breast, 8.65 µM; in the test with OVCAR-5 ovarian it was 34.6 µM. Moreover, the TGI in the test with SR leukemia amounted to 20.9 µM; in the test on OVCAR-3 ovarian it was 5.3 µM; in the test on BT-549 breast, 34.8 µM.

The values are drawn from PubChem BioAssay (NCI).
